Among the test systems are TK-10; LOX IMVI; SN12C; UACC-257; SNB-19; SW-620; ACHN; OVCAR-3; RPMI-8226; IGROV-1; OVCAR-5; SF-295; SK-MEL-5; UO-31; HCT-116; CAKI-1; MDA-MB-435; UACC-62; RXF 393; COLO 205.
Assay in all cases: inhibition of tumour cell growth, NCI panel, 48 h

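Five compound concentrations were applied to cells in 96-well plates for 48 hours; endpoints were derived by simple linear interpolation of the resulting dose-response curve. At the GI50, growth is halved.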 Active and inactive are the calls of the source. No stated cut-off is given here; in the data, active = GI50 up to about 1.1 µM and inactive = higher. Some results are limits rather than exact numbers.

Turning to `COCCOCCOC1=C(Cl)C(=O)c2c(O)ccc(O)c2C1=O`, the GI50 in the experiment with TK-10 was 1.52 µM (inactive); in the experiment on LOX IMVI, 1.95 µM (inactive); in the experiment with SN12C, 1.89 µM (inactive); with UACC-257 it was 1.99 µM (inactive); in the experiment on SNB-19, 13.5 µM (inactive); in the experiment on SW-620 it was 0.287 µM (active). For the same molecule, the GI50 in the experiment on ACHN was 1.68 µM (inactive); in the experiment on OVCAR-3 it was 1.63 µM (inactive); with RPMI-8226 it was 0.718 µM (active); with IGROV-1 it was 2.62 µM (inactive); with OVCAR-5 it was 9.04 µM (inactive); in the experiment with SF-295, 11.7 µM (inactive). Further, the GI50 in the experiment with SK-MEL-5 is 1.71 µM (inactive); in the experiment with UO-31 it was 2.16 µM (inactive); with HCT-116 it was 0.923 µM (active); in the experiment with CAKI-1, 1.27 µM (inactive); with MDA-MB-435, 1.74 µM (inactive); in the experiment with UACC-62, 1.63 µM (inactive). Also, the figures for the GI50 in the experiment with RXF 393 and in the experiment with COLO 205 were 1.44 µM (inactive) and 1.03 µM (active), respectively.
`COC1C(O)C(C)OC(O[C@@H]2C[C@H]3CC[C@@H]4[C@H](CC[C@]5(C)[C@@H](C6=CC(=O)OC6)CC[C@]45O)[C@@]3(C)[C@H](O)C2)C1O` (stereo not given in full): the GI50 is 0.0361 µM (active) in the experiment on TK-10; < 0.0362 µM (active) with LOX IMVI; < 0.01 µM (active) in the experiment on SN12C; 0.1 µM (active) in the experiment with UACC-257; 0.264 µM (active) in the experiment on SNB-19; 0.0782 µM (active) in the experiment on SW-620. Further, the GI50 is < 0.0212 µM (active) in the experiment on ACHN; < 0.0258 µM (active) with OVCAR-3; 0.0512 µM (active) in the experiment with RPMI-8226; 0.145 µM (active) in the experiment on IGROV-1; 0.114 µM (active) with OVCAR-5; < 0.0371 µM (active) with SF-295. The GI50 in the experiment on SK-MEL-5 was < 0.0258 µM (active); in the experiment with HCT-116, < 0.0225 µM (active); in the experiment on CAKI-1, 0.0225 µM (active); in the experiment with MDA-MB-435, 0.0883 µM (active); in the experiment on UACC-62, 0.142 µM (active); in the experiment on RXF 393, < 0.0161 µM (active). The GI50 in the experiment with COLO 205 is 0.191 µM (active).
With `COc1ccc(C2=NN(C(=O)c3cccnc3)C(O)(c3cc(F)c(Cl)cc3Cl)C2)cc1OC` (stereo not given), the GI50 with TK-10 is 30.4 µM (inactive); with LOX IMVI, 13.9 µM (inactive); in the experiment with SN12C, 15.3 µM (inactive); in the experiment on UACC-257 it was 13.6 µM (inactive); in the experiment on SNB-19, 29.9 µM (inactive); with SW-620, 17.9 µM (inactive). Further, the GI50 with ACHN was 21.3 µM (inactive); with OVCAR-3, 11.5 µM (inactive); with RPMI-8226, 13.4 µM (inactive); in the experiment on IGROV-1, 8.11 µM (inactive); in the experiment on OVCAR-5, 30.2 µM (inactive); in the experiment with SF-295, 15.5 µM (inactive). For the same molecule, the GI50 is 12.1 µM (inactive) in the experiment with SK-MEL-5; 17.5 µM (inactive) in the experiment with UO-31; 14.8 µM (inactive) with HCT-116; 24.1 µM (inactive) in the experiment on CAKI-1; 15.2 µM (inactive) in the experiment with MDA-MB-435; 15.5 µM (inactive) in the experiment on RXF 393. In addition, the GI50 in the experiment with COLO 205 is 12.3 µM (inactive).
On to `CN1CCC[N+](C)=C1c1ccccc1`, for which the GI50 in the experiment with TK-10, in the experiment with LOX IMVI, in the experiment on SN12C, in the experiment with UACC-257, in the experiment on SNB-19 and in the experiment on SW-620 was > 100 µM (inactive) throughout. In addition, the GI50 in the experiment with ACHN, in the experiment with OVCAR-3, in the experiment with RPMI-8226, in the experiment on IGROV-1, with OVCAR-5 and in the experiment on SF-295 was > 100 µM (inactive) each time. Further, the GI50 in the experiment with SK-MEL-5, with UO-31, with HCT-116, in the experiment on CAKI-1, in the experiment on MDA-MB-435 and in the experiment on RXF 393 was > 100 µM (inactive) throughout. Moreover, in the experiment on COLO 205, the GI50 is > 100 µM (inactive).
With `CN(NC(=O)c1ccc(Cl)cc1)C1=NCCCCN1`, the GI50 in the experiment on TK-10, with LOX IMVI, in the experiment with UACC-257, with SNB-19, in the experiment on SW-620 and in the experiment with ACHN was > 100 µM (inactive) each time. Further, the GI50 with OVCAR-3, with RPMI-8226, with IGROV-1, in the experiment on OVCAR-5, in the experiment on SF-295 and in the experiment with SK-MEL-5 was > 100 µM (inactive) in each case. The GI50 in the experiment on UO-31, in the experiment with HCT-116, in the experiment with CAKI-1, in the experiment with MDA-MB-435, in the experiment with UACC-62 and in the experiment on RXF 393 was > 100 µM (inactive) each time. In the experiment on COLO 205, the GI50 is > 100 µM (inactive).
For `CCN(CC)Cc1sc2nc3ccccc3n2c1-c1ccc(OC)cc1`, the GI50 in the experiment with TK-10 is 79.6 µM (inactive); in the experiment with LOX IMVI, 28.3 µM (inactive); in the experiment on UACC-257 it was > 100 µM (inactive); in the experiment with SNB-19, 27.1 µM (inactive); in the experiment with SW-620, 29 µM (inactive); in the experiment on ACHN it was 45.1 µM (inactive). The GI50 was 21.3 µM (inactive) with OVCAR-3; 10.5 µM (inactive) with RPMI-8226; 25.5 µM (inactive) in the experiment with IGROV-1; 76 µM (inactive) in the experiment with OVCAR-5; 24.5 µM (inactive) with SF-295; 5.28 µM (inactive) with UO-31. The GI50 with HCT-116 was 26.6 µM (inactive); in the experiment on CAKI-1, 38.8 µM (inactive); in the experiment with MDA-MB-435, 3.05 µM (inactive); in the experiment on UACC-62, 34.8 µM (inactive); with RXF 393 it was 26.2 µM (inactive); in the experiment on COLO 205 it was 21.5 µM (inactive).
As to `CC1(C)CCCOc2cccc(c2)OCCCC(C)(C)C1=O`, the GI50 in the experiment on TK-10 is > 100 µM (inactive); in the experiment with LOX IMVI, 20.7 µM (inactive); in the experiment with SN12C, 45.3 µM (inactive); with SNB-19, 80.7 µM (inactive); in the experiment with SW-620, 27 µM (inactive); with ACHN, 36.8 µM (inactive). Further, the GI50 with OVCAR-3 is 22 µM (inactive); in the experiment with RPMI-8226, 26.7 µM (inactive); in the experiment on IGROV-1, 39.2 µM (inactive); in the experiment on OVCAR-5, > 100 µM (inactive); in the experiment with SK-MEL-5, 18.4 µM (inactive); in the experiment with UO-31 it was 51.4 µM (inactive). For the same molecule, the GI50 in the experiment on HCT-116 was 26.6 µM (inactive); in the experiment on CAKI-1, 46.2 µM (inactive); in the experiment on MDA-MB-435 it was 34 µM (inactive); in the experiment with UACC-62, 19.1 µM (inactive); in the experiment on RXF 393, 17.7 µM (inactive); in the experiment on COLO 205 it was 49.3 µM (inactive).
As to `NC(=O)C(=O)c1ncn(Cc2ccccc2)c1N`, the GI50 with TK-10 is > 100 µM (inactive); in the experiment on LOX IMVI it was 89.5 µM (inactive); in the experiment with SN12C, > 100 µM (inactive); in the experiment with UACC-257, > 100 µM (inactive); with SNB-19, > 100 µM (inactive); in the experiment on SW-620 it was > 100 µM (inactive). In addition, the GI50 with ACHN, with OVCAR-3, in the experiment on RPMI-8226, in the experiment with IGROV-1, in the experiment on OVCAR-5 and in the experiment with SF-295 was > 100 µM (inactive) each time. Also, the GI50 in the experiment on SK-MEL-5, in the experiment with HCT-116, with CAKI-1, in the experiment with MDA-MB-435, with UACC-62 and with RXF 393 was > 100 µM (inactive) each time. Also, the GI50 with COLO 205 is > 100 µM (inactive).
For `COc1ccc(CC2Cc3ccccc3CCN2)cc1OC` (stereo not given), the GI50 is 38.5 µM (inactive) in the experiment with LOX IMVI; > 50 µM (inactive) with SN12C; 21.6 µM (inactive) with UACC-257; > 50 µM (inactive) with SNB-19; > 50 µM (inactive) with SW-620; > 50 µM (inactive) with OVCAR-3. Further, the GI50 with RPMI-8226 is 18.3 µM (inactive); in the experiment on IGROV-1, 23.9 µM (inactive); in the experiment on OVCAR-5 it was 38.2 µM (inactive); in the experiment on SF-295, > 50 µM (inactive); in the experiment with UO-31, 11.8 µM (inactive); in the experiment on HCT-116 it was 20.9 µM (inactive). For the same molecule, the GI50 with CAKI-1 is > 50 µM (inactive); in the experiment with MDA-MB-435, > 50 µM (inactive); with UACC-62, > 50 µM (inactive); in the experiment with RXF 393, 12 µM (inactive); with COLO 205, 11.3 µM (inactive).
On to `CC[C@@]1(N(C)C)C(=O)OCc2c1cc1n(c2=O)Cc2cc3ccccc3nc2-1`, for which the GI50 with TK-10 was 48.2 µM (inactive); in the experiment with LOX IMVI, 17.1 µM (inactive); with UACC-257, > 100 µM (inactive); with SNB-19 it was 29.4 µM (inactive); with SW-620, 32.1 µM (inactive); in the experiment on ACHN, 20.3 µM (inactive). Further, the GI50 with OVCAR-3 is 27.8 µM (inactive); with RPMI-8226, 31.3 µM (inactive); in the experiment on OVCAR-5 it was > 100 µM (inactive); with SF-295, 16.1 µM (inactive); with SK-MEL-5 it was 69.3 µM (inactive); in the experiment with UO-31 it was 25.4 µM (inactive). The GI50 with HCT-116 is 33.1 µM (inactive); with CAKI-1 it was > 10 µM (inactive); in the experiment with MDA-MB-435, > 100 µM (inactive); in the experiment with UACC-62, 22.1 µM (inactive); with RXF 393, 13.7 µM (inactive); in the experiment on COLO 205, > 100 µM (inactive).
For the molecule `C/C(=C1\C(=O)C(c2ccccc2)N(c2ccccc2)C1=O)c1ccc(Cl)cc1` (stereo not given), the GI50 in the experiment on TK-10 was 22 µM (inactive); in the experiment with LOX IMVI it was 14.9 µM (inactive); with SN12C, 30.7 µM (inactive); with UACC-257, 16.9 µM (inactive); in the experiment with SNB-19, 17.4 µM (inactive); in the experiment with SW-620, 22.8 µM (inactive). In addition, the GI50 in the experiment with ACHN was 19.3 µM (inactive); with OVCAR-3 it was 15.6 µM (inactive); with RPMI-8226, 15.4 µM (inactive); in the experiment on IGROV-1, 18.7 µM (inactive); in the experiment on SF-295, 20 µM (inactive); with SK-MEL-5, 14.5 µM (inactive). Also, the GI50 in the experiment with UO-31 was 19.8 µM (inactive); in the experiment with HCT-116, 16.4 µM (inactive); with CAKI-1 it was 24.4 µM (inactive); with MDA-MB-435, 17.4 µM (inactive); with UACC-62, 16.3 µM (inactive); in the experiment on RXF 393, 24 µM (inactive). Also, in the experiment with COLO 205, the GI50 is 16.8 µM (inactive).
